How the values were obtained:
U2OS [1] = assay: In vitro effect on the S phase of cell cycle of U2OS cells upon incubation at 37 degree for 24 hours in FCM assay at concentration of 500 nM; format: functional, Homo sapiens
U2OS [2] = assay: In vitro effect on the G1 phase of cell cycle of U2OS cells upon incubation at 37 degree for 24 hours in FCM assay at concentration of 500 nM; format: functional, Homo sapiens
U2OS [3] = assay: In vitro effect on the G2/M phase of cell cycle of U2OS cells upon incubation at 37 degree for 24 hours in FCM assay at concentration of 500 nM; format: functional, Homo sapiens
U2OS [4] = assay: In vitro effect on the G2/M phase of cell cycle of U2OS cells upon incubation at 37 degree for 24 hours in FCM assay; all the cell died at tested concentration (500 nM); format: functional, cell-based; conditions: Homo sapiens
U2OS [5] = assay: In vitro effect on the S phase of cell cycle of U2OS cells upon incubation at 37 degree for 24 hours in FCM assay; all the cell died at tested concentration (500 nM); format: functional, cell-based; conditions: Homo sapiens
U2OS [6] = assay: In vitro effect on the G1 phase of cell cycle of U2OS cells upon incubation at 37 degree for 24 hours in FCM assay; all the cell died at tested concentration (500 nM); format: functional, cell-based; conditions: Homo sapiens

| SMILES | Content of cell cycle (U2OS [1]) | Content of cell cycle (U2OS [2]) | Content of cell cycle (U2OS [3]) | also measured |
| --- | --- | --- | --- | --- |
| COc1ccc(-c2oc3cc(OC)cc(OC)c3c(=O)c2C(F)(F)F)cc1 | 49.24% | 44.09% | 6.67% |  |
| COc1ccc(-c2c(C(F)(F)F)oc3cc(OC)cc(OC)c3c2=O)cc1 |  |  |  | Activity (U2OS [1]): 48.02%; Activity (U2OS [2]): 46.69%; Activity (U2OS [3]): 5.29% |
| COc1cc(OC)c2c(c1)OC(c1ccccc1)=CC2(O)C(F)(F)F (stereo not given) |  |  |  | Activity (U2OS [4]): all the cells died at tested concentration (500 nM); Activity (U2OS [5]): all the cells died at tested concentration (500 nM); Activity (U2OS [6]): all the cells died at tested concentration (500 nM) |
| COc1cc(OC)c2c(=O)cc(-c3cc(C(F)(F)F)c(OC)c(C(F)(F)F)c3)oc2c1 | 44.92% | 55.08% | 0% |  |
| COc1cc(OC)c2c(=O)c(C(F)(F)F)c(-c3ccccc3)oc2c1 | 31.95% | 53.06% | 14.99% |  |
